Experiments:
ApoE = ApoE gene expression analysis by qRT-PCR in MeWo cancer cells; assay type: cell-based; settings: 48 h; for Emax at 1 µM / Emax at 10 µM: read-out: ApoE gene expression in relation to GW3965 at 1 μM (100%)
Procedure: Cancer cells (MeWo) were treated in presence of drug or control (DMSO) at indicated concentrations for 48 h. RNA was extracted from whole cell lysates using the Total RNA Purification Kit (17200, Norgen, Thorold, Canada). 600 ng of total RNA was then reverse transcribed into cDNA using the Verso cDNA Synthesis Kit (AB-1453/B, Fisher Scientific). 6 ng of the resulting cDNA was then mixed with SYBR green PCR Master Mix (4309155, Applied Biosystems) and the appropriate primers. Each reaction was performed in quadruplicate, and mRNA expression was quantified by performing real-time PCR amplification using a StepOne Plus Real-Time PCR System (Applied Biosystems). GAPDH was used as an endogenous control for normalization. EC50 values were calculated using Prism6 software and plotting expression values versus drug concentration. The following primers were used: [table] The results are shown in relation to GW3965 ApoE expression at 1 μM (i.e. 100%).

Cancer cells (MeWo) = test: Matrigel invasion assay; assay type: cell-based; settings: 1 μM drug, invasion 24 h
Procedure: Cancer cells (MeWo) were pre-treated in presence of 1 μM drug or control (DMSO) for 72 h after which cancer cells were switched to serum-starvation in 0.2% FBS DMEM-based media for 16 h in the presence of the drug or control, respectively. Trans-well invasion chambers (354480, BD Biosciences, Bedford, Mass.) were pre-equilibrated in DMEM-based media prior to the beginning of the assay by adding 0.5 ml of starvation media to the top and bottom chambers. After 30 min, the media in the top chamber was removed, and 0.5 ml of media containing 1×10^5 cancer cells in the presence of the drug, was added into each matrigel-coated trans-well insert. Cells were allowed to invade through the matrigel-coated inserts for 24 h at 37° C.

EC50 (ApoE; Homo sapiens, MeWo) [µM]	EC50 (ApoE) [µM]	Structure (SMILES)	Emax at 1 µM (ApoE; Homo sapiens, MeWo, 1 μM) [%]	Emax at 10 µM (ApoE; Homo sapiens, MeWo) [%]	% of Cells Migrated Compared to Control (Cancer cells (MeWo)) [%]	ApoE gene expression in relation to GW3965 at 1 μM (100%) (ApoE; 1 μM)
< 1		O=C(Cc1cccc(OCCCN(Cc2cccc(C(F)(F)F)c2Cl)CC(c2ccccc2)c2ccccc2)c1)NO [Compound 1, 2-{3-[3-({[2-chloro-3-(trifluoromethyl)phenyl]methyl}(2,2-diphenylethy)amino)propoxy]phenyl}-N-hydroxyacetamide]	> 80	< 40	<95	
	< 0.3	CS(=O)(=O)N1CCCC(OCCCN(Cc2cccc(C(F)(F)F)c2Cl)CC(c2ccccc2)c2ccccc2)C1 (centres unmarked) [Compound 29, {[2-chloro-3-(trifluoromethyl)phenyl]methyl}(2,2-diphenylethyl){3-[(1-methanesulfonylpiperidin-3-yl)oxy]propyl}amine]		> 80	<50	++ (“++” > 40% induction)
< 1		C[C@H](CCO[C@H]1CCCN(S(C)(=O)=O)C1)N(Cc1cccc(C(F)(F)F)c1Cl)CC(c1ccccc1)c1ccccc1 [Compound 31, {[2-chloro-3-(trifluoromethyl)phenyl]methyl}(2,2-diphenylethyl)[(2R)-4-{[(3S)-1-methanesulfonylpiperidin-3-yl]oxy}butan-2-yl]amine]	> 40	> 80	<70	
< 1		C[C@@H](CN(CCCOc1cc(F)c(CO)c(S(C)(=O)=O)c1)Cc1cccc(C(F)(F)F)c1Cl)c1ccccc1 [Compound 79, {4-[3-({[2-chloro-3-(trifluoromethyl)phenyl]methyl}[(2R)-2-phenylpropyl]amino)propoxy]-2-fluoro-6-methanesulfonylphenyl}methanol]	> 80	> 80		
< 1		C[C@H](CN(CCCOc1cc(F)c(CO)c(S(C)(=O)=O)c1)Cc1cccc(C(F)(F)F)c1Cl)c1ccccc1 [Compound 80, {4-[3-({[2-chloro-3-(trifluoromethyl)phenyl]methyl}[(2S)-2-phenylpropyl]amino)propoxy]-2-fluoro-6-methanesulfonylphenyl}methanol]	> 80	> 80		
< 0.3		CS(=O)(=O)c1cc(OCCCN(CCc2ccccc2)Cc2cccc(C(F)(F)F)c2Cl)cc(F)c1CO [Compound 81, {4-[3-({[2-chloro-3-(trifluoromethyl)phenyl]methyl}(2-phenylethyl)amino)propoxy]-2-fluoro-6-methanesulfonylphenyl}methanol]	> 40	> 40		
		CC(C)(CN(CCCOc1cc(F)c(CO)c(S(C)(=O)=O)c1)Cc1cccc(C(F)(F)F)c1Cl)c1ccccc1 [Compound 82, {4-[3-({[2-chloro-3-(trifluoromethyl)phenyl]methyl}(2-methyl-2-phenylpropyl)amino)propoxy]-2-fluoro-6-methanesulfonylphenyl}methanol]	> 40			
< 1		CS(=O)(=O)c1cc(OCCCN(Cc2ccccc2)Cc2cccc(C(F)(F)F)c2Cl)cc(F)c1CO [Compound 83, (4-{3-[benzyl({[2-chloro-3-(trifluoromethyl)phenyl]methyl})amino]propoxy}-2-fluoro-6-methanesulfonylphenyl) methanol]	> 80			
		[2H]C([2H])(O)c1c(F)cc(OCCCN(Cc2cccc(C(F)(F)F)c2Cl)CC(c2ccccc2)c2ccccc2)cc1S(C)(=O)=O [Compound 84, {4-[3-({[2-chloro-3-(trifluoromethyl)phenyl]methyl}(2,2-diphenylethyl)amino)propoxy]-2-fluoro-6-methanesulfonylphenyl}(^2H2)methanol]	> 40	> 40		
< 1		CC(O)c1c(F)cc(OCCCN(Cc2cccc(C(F)(F)F)c2Cl)CC(c2ccccc2)c2ccccc2)cc1S(C)(=O)=O (centres unmarked) [Compound 85, 1-{4-[3-({[2-chloro-3-(trifluoromethyl)phenyl]methyl}(2,2-diphenylethyl)amino)propoxy]-2-fluoro-6-methanesulfonylphenyl}ethan-1-ol]	> 80			
		CC(=O)c1c(F)cc(OCCCN(Cc2cccc(C(F)(F)F)c2Cl)CC(c2ccccc2)c2ccccc2)cc1S(C)(=O)=O [Compound 87, 1-{4-[3-({[2-chloro-3-(trifluoromethyl)phenyl]methyl}(2,2-diphenylethyl)amino)propoxy]-2-fluoro-6-methanesulfonylphenyl}ethan-1-one]	> 40			
		CS(=O)(=O)c1cc(OCCCN(Cc2cccc(C(F)(F)F)c2Cl)CC(c2ccccc2)c2ccccc2)cc(F)c1CN [Compound 88, {4-[3-({[2-chloro-3-(trifluoromethyl)phenyl]methyl}(2,2-diphenylethyl)amino)propoxy]-2-fluoro-6-methanesulfonylphenyl}methanamine]	> 80			
< 1		CC(=O)NCc1c(F)cc(OCCCN(Cc2cccc(C(F)(F)F)c2Cl)CC(c2ccccc2)c2ccccc2)cc1S(C)(=O)=O [Compound 89, N-({4-[3-({[2-chloro-3-(trifluoromethyl)phenyl]methyl}(2,2-diphenylethyl)amino)propoxy]-2-fluoro-6-methanesulfonylphenyl}methyl)acetamide]	> 80	> 80		
< 1		CS(=O)(=O)c1cc(OCCCN(Cc2cccc(C(F)(F)F)c2Cl)CC(c2ccccc2)c2ccccc2)cc(F)c1C(N)=O [Compound 90, 4-[3-({[2-chloro-3-(trifluoromethyl)phenyl]methyl}(2,2-diphenylethyl)amino)-propoxy]-2-fluoro-6-methanesulfonylbenzamide]	> 80			
		CS(=O)(=O)c1cc(OCCCN(Cc2cccc(C(F)(F)F)c2Cl)CC(c2ccccc2)c2ccccc2)cc(F)c1CCO [Compound 91, 2-{4-[3-({[2-chloro-3-(trifluoromethyl)phenyl]methyl}(2,2-diphenylethyl)amino)propoxy]-2-fluoro-6-methanesulfonylphenyl} ethan-1-ol]	> 80	> 40		
		CNC(=O)c1c(F)cc(OCCCN(Cc2cccc(C(F)(F)F)c2Cl)CC(c2ccccc2)c2ccccc2)cc1S(C)(=O)=O [Compound 92, 4-[3-({[2-chloro-3-(trifluoromethyl)phenyl]methyl}(2,2-diphenylethyl)amino)-propoxy]-2-fluoro-6-methanesulfonyl-N-methylbenzamide]	> 40			
		CS(=O)(=O)c1cc(OCCCN(Cc2cccc(C(F)(F)F)c2Cl)CC(c2ccccc2)c2ccccc2)cc(F)c1C(=O)C(F)(F)F [Compound 93, 1-{4-[3-({[2-chloro-3-(trifluoromethyl)phenyl]methyl}(2,2-diphenylethyl)amino)propoxy]-2-fluoro-6-methanesulfonylphenyl}-2,2,2-trifluoroethan-1-one]	< 40	< 40		
		CS(=O)(=O)c1cc(OCCCN(Cc2cccc(C(F)(F)F)c2Cl)CC(c2ccccc2)c2ccccc2)cc(F)c1C(O)C(F)(F)F (centres unmarked) [Compound 95, 1-{4-[3-({[2-chloro-3-(trifluoromethyl)phenyl]methyl}(2,2-diphenylethyl)amino)propoxy]-2-fluoro-6-methanesulfonylphenyl}-2,2,2-trifluoroethan-1-ol]	> 40			
		CN(C)C(=O)c1c(F)cc(OCCCN(Cc2cccc(C(F)(F)F)c2Cl)CC(c2ccccc2)c2ccccc2)cc1S(C)(=O)=O [Compound 96, 4-[3-({[2-chloro-3-(trifluoromethyl)phenyl]methyl}(2,2-diphenylethyl)amino)propoxy]-2-fluoro-6-methanesulfonyl-N,N-dimethylbenzamide]	> 40			
< 1		CC(CCOc1cccc(CC(=O)O)c1)N(Cc1cccc(C(F)(F)F)c1Cl)CC(c1ccccc1)c1ccccc1 (centres unmarked) [SB742881, reference compound]	> 40	> 40	<70	

Structure (SMILES)	EC50 (ApoE; Homo sapiens, MeWo) [µM]	EC50 (ApoE) [µM]	Emax at 1 µM (ApoE; Homo sapiens, MeWo, 1 μM) [%]	Emax at 10 µM (ApoE; Homo sapiens, MeWo) [%]	% of Cells Migrated Compared to Control (Cancer cells (MeWo)) [%]	ApoE gene expression in relation to GW3965 at 1 μM (100%) (ApoE; 1 μM)
C[C@H](CCOc1cc(F)c(CO)c(S(C)(=O)=O)c1)N(Cc1cccc(C(F)(F)F)c1Cl)CC(c1ccccc1)c1ccccc1 [Compound 9, {4-[(3R)-3-({[2-chloro-3-(trifluoromethyl)phenyl]methyl}(2,2-diphenylethyl)amino)butoxy]-2-fluoro-6-methanesulfonylphenyl}methanol]	< 0.3		> 40	> 80	<50	

Source: patent US10669296B2, “LXR agonists and uses thereof” (Rgenix, Inc., priority 2014, dated 2020)
